Test results from US20160318928A1, “TRICYCLIC COMPOUNDS AS ANTICANCER AGENTS” (BRISTOL-MYERS SQUIBB COMPANY, priority 2013, published 2016).

system: JJN3R multiple myeloma cell line; assay: Human tumor xenograft model in mice, JJN3R; assay type: in vivo; details: Mus musculus, JJN-3R, po, 1 mg/kg, QDx7, read-out: % TGI
Source text: Human Tumor Xenograft Models in Mice
All rodents were obtained from Jackson Laboratory. (Bar Harbor, Me.), and maintained in an ammonia-free environment in a defined and pathogen-free colony. All mice were quarantined approximately 1 week prior to their use for tumor propagation and drug efficacy testing. Mice were fed food and water ad libitum. The animal care program of Bristol-Myers Squibb Pharmaceutical Research Institute is fully accredited by the American Association for Accreditation of Laboratory Animal Care (AAALAC). All experiments were performed in accordance with Bristol-Myers Squibb (BMS) animal test methods and guidelines.
Tumor xenografts were grown and maintained subcutaneously (SC) in NSG (NOD scid IL2 receptor gamma chain knockout) mice (Jackson Lab). Tumors were propagated as subcutaneous transplants using tumor fragments obtained from donor mice.
Preclinical Chemotherapy Trials
The required numbers of animals needed to detect a meaningful response were pooled at the start of the experiment and each was given bilateral subcutaneous implants of two tumor fragments (˜20 mg) with a 13-gauge trocar. Tumors were allowed to grow to the pre-determined size window (tumors outside the range were excluded) and animals were evenly distributed to various treatment and control groups. There were typically 6-8 mice per treatment and control groups, consisting of 10-12 tumors. Treatment of each animal was based on individual body weight. Treated animals were checked daily for treatment related toxicity/mortality. Each group of animals was weighed before the initiation of treatment (WO and then again following the last treatment dose (Wt2). The difference in body weight (Wt2-Wt1) provides a measure of treatment-related toxicity.
Tumor response was determined by measurement of tumors with a caliper twice a week, until the tumors reached a predetermined “target” size of 0.5 gm or 1 gm depending on the tumor type. Tumor weights (mg) were estimated from the formula:
Tumor weight=(length×width^2)÷2
Tumor response criteria are expressed in terms of tumor growth inhibition (% TGI). Tumor growth delay is defined as the difference in time (days) required for the treated tumors (T) to reach a predetermined target size compared to those of the control group (C). For this purpose, the tumor weight of a group is expressed as medium tumor weight (MTW).
Tumor growth inhibition is calculated as follows:
where, Ct=Median control tumor size at end of treatment C0=Median control tumor size at treatment initiation Tt=Median tumor size of treated group at end of treatment T0=Median tumor size of treated group at treatment initiation
Tumor response was also expressed in terms of tumor growth delay and expressed as log cell kill (LCK value), defined as the difference in time (days) required for the treated tumors (T) to reach a predetermined target size compared to those of the control group (C).
Whenever possible, antitumor activity was determined at a range of dose levels up to the maximum tolerated dose (MTD) which is defined as the dose level immediately […] which excessive toxicity (i.e. more than one death) occurred. When death occurred, the day of death was recorded. Treated mice dying prior to having their tumors reach target size were considered to have died from drug toxicity. No control mice died bearing tumors less than target size. Treatment groups with more than one death caused by drug toxicity were considered to have had excessively toxic treatments and their data were not included in the evaluation of a compound's antitumor efficacy.
For administration of BET inhibitors to rodents, compounds were dissolved in […]/10% TPGS/10% Ethanol. BET inhibitors were typically administered orally on a schedule of QDx7 or QDx10 (5 day-on-2 day-off), although other schedules had also been evaluated and shown to be efficacious

Compared with [2H]C([2H])([2H])c1nnn(C)c1-c1cnc2c3ccc(S(C)(=O)=O)cc3n([C@H](c3ccccc3)C3CCOCC3)c2c1 [Example 263, 5-{7-Methanesulfonyl-5-[(S)-oxan-4-yl(phenyl)methyl]-5H-pyrido[3,2-b]indol-3-yl}-4-(^2H3)methyl-1-methyl-1H-1,2,3-triazole], [2H]C([2H])([2H])c1nnn(C)c1-c1cnc2c3ccc(C(C)(C)O)c(F)c3n([C@H](c3ccccc3)C3CCOCC3)c2c1 [Example 278, 2-{6-Fluoro-3-[4-(^2H3)methyl-1-methyl-1H-1,2,3-triazol-5-yl]-5-[(S)-oxan-4-yl(phenyl)methyl]-5H-pyrido[3,2-b]indol-7-yl}propan-2-ol] is higher in inhibition in vivo at 1 mg/kg: 6% for the first, 103% for the second.

First: [2H]C([2H])([2H])c1nnn(C)c1-c1cnc2c3ccc([C@@](C)(O)C4CC4)c(F)c3n([C@H](c3ccccc3)C3CCOCC3)c2c1 [Example 433, (1 S)-1-cyclopropyl-1-{6-fluoro-3-[4-(^2H3)methyl-1-methyl-1H-1,2,3-triazol-5-yl]-5-[(S)-oxan-4-yl(phenyl)methyl]-5H-pyrido[3,2-b]indol-7-yl}ethan-1-ol]
Second: [2H]C([2H])([2H])c1nnn(C)c1-c1cnc2c3ccc([C@](C)(O)C4CC4)c(F)c3n([C@H](c3ccccc3)C3CCOCC3)c2c1 [Example 434, (1R)-1-cyclopropyl-1-{6-fluoro-3-[4-(^2H3)methyl-1-methyl-1H-1,2,3-triazol-5-yl]-5-[(5)-oxan-4-yl(phenyl)methyl]-5H-pyrido[3,2-b]indol-7-yl}ethan-1-ol]
The inhibition in vivo at 1 mg/kg of the first is lower: 54% for the first, 82% for the second.

Molecule Cc1nnn(C)c1-c1cnc2c3ccc([C@](C)(O)C4CC4)c(F)c3n([C@H](c3ccccc3)C3CCOCC3)c2c1 (single isomer, unassigned) [Example 432] has an inhibition in vivo at 1 mg/kg of 51%.

same assay, conditions: Mus musculus, JJN-3R, po, 4 mg/kg, QDx7, read-out: % TGI

First: [2H]C([2H])([2H])c1nnn(C)c1-c1cnc2c3ccc(S(C)(=O)=O)cc3n([C@H](c3ccccc3)C3CCOCC3)c2c1 [Example 263, 5-{7-Methanesulfonyl-5-[(S)-oxan-4-yl(phenyl)methyl]-5H-pyrido[3,2-b]indol-3-yl}-4-(^2H3)methyl-1-methyl-1H-1,2,3-triazole]
Second: [2H]C([2H])([2H])c1nnn(C)c1-c1cnc2c3ccc(C(C)(C)O)c(F)c3n([C@H](c3ccccc3)C3CCOCC3)c2c1 [Example 278, 2-{6-Fluoro-3-[4-(^2H3)methyl-1-methyl-1H-1,2,3-triazol-5-yl]-5-[(S)-oxan-4-yl(phenyl)methyl]-5H-pyrido[3,2-b]indol-7-yl}propan-2-ol]
The inhibition in vivo at 4 mg/kg of the first is lower: 52% for the first, 110% for the second.

For Cc1nnn(C)c1-c1cnc2c3ccc([C@](C)(O)C4CC4)c(F)c3n([C@H](c3ccccc3)C3CCOCC3)c2c1 (single isomer, unassigned) [Example 432], the inhibition in vivo at 4 mg/kg was 102%.

target: BRD4 (Homo sapiens, UniProt O60885); assay: Time resolved fluorescence resonance energy transfer (TR-FRET) binding assay, BRD4 bromodomain; details: one of the FRET assays described

CCCC(CCC)n1c2cc(C(C)(C)O)ccc2c2ncc(-c3c(C)noc3C)cc21 [Example 8] and CCCC(CCC)n1c2cc(-c3c(C)noc3C)cnc2c2ccc(C(C)(C)O)c(F)c21 [Example 82] cannot be ordered by IC50: < 5 nM for the first, < 25 nM for the second.

[2H]C([2H])([2H])c1nnn(C)c1-c1cnc2c3cc(F)c(C(C)(C)O)cc3n(C(c3ncccc3F)C3CCOCC3)c2c1 (single isomer, unassigned) [Example 459] and [2H]C([2H])([2H])c1nnn(C)c1-c1cnc2c3ccc(C(C)(C)O)cc3n(C(c3ccccc3F)C3CCOCC3)c2c1 (stereo not drawn) [Example 266] cannot be ordered by IC50: < 5 nM for the first, < 5 nM for the second.

CCCC(CCC)n1c2cc(C(C)(C)O)ccc2c2ncc(-c3c(C)nnn3C)cc21 [Example 61] and CCCC(CCC)n1c2cc(-c3c(C)nnn3C)cnc2c2ccc(C(C)(C)O)c(F)c21 [Example 75] cannot be ordered by IC50: < 5 nM for the first, < 5 nM for the second.

Cc1nnn(C)c1-c1cnc2c3cc(C(=O)N4CC(O)C4)ccc3n([C@H](c3ccccc3)C3CCOCC3)c2c1 [Example 429, 1-[3-(Dimethyl-1H-1,2,3-triazol-5-yl)-5-[(S)-oxan-4-yl(phenyl)methyl]-5H-pyrido[3,2-b]indole-8-cabonyl]azetidine-3-ol] and Cc1nnn(C)c1-c1cnc2c3cc(C(=O)N4CC(F)C4)ccc3n([C@H](c3ccccc3)C3CCOCC3)c2c1 [Example 430, 5-[8-(3-Fluoroazetidine-1-carbonyl)-5-[(S)-oxan-4-yl(phenyl)methyl]-5H-pyrido[3,2-b]indol-3-yl]-1,4-dimethyl-1H-1,2,3-triazole] cannot be ordered by IC50: < 5 nM for the first, < 5 nM for the second.

[2H]C([2H])([2H])c1nnn(C)c1-c1cnc2c3ccc(C(C)(C)O)c(F)c3n([C@H](c3ccccc3F)C3CCCOC3)c2c1 (stereo partly drawn) [Example 272] and Cc1nnn(C)c1-c1cnc2c3cc(F)c(C(C)(C)O)c(F)c3n([C@H](c3ccccc3)C3CCOCC3)c2c1 [Example 451, 2-[3-(Dimethyl-1H-1,2,3-triazol-5-yl)-6,8-difluoro-5-[(S)-oxan-4-yl(phenyl)methyl]-5H-pyrido[3,2-b]indol-7-yl]propan-2-ol] cannot be ordered by IC50: < 5 nM for the first, < 5 nM for the second.

[2H]C([2H])([2H])c1nnn(C)c1-c1cnc2c3c(S(C)(=O)=O)cccc3n(C(c3ccc(F)cc3)C3CCOCC3)c2c1 (stereo not drawn) [Example 270] and [2H]C([2H])([2H])c1nnn(C)c1-c1cnc2c3ccc(S(C)(=O)=O)cc3n(C(c3ccc(F)cc3)C3CCOCC3)c2c1 (stereo not drawn) [Example 265] cannot be ordered by IC50: < 5 nM for the first, < 5 nM for the second.

Cc1nnn(C)c1-c1cnc2c3ccc(C(C)(C)O)cc3n([C@H](c3ccc(F)cc3)C3CCOCC3)c2c1 [Example 59] and Cc1nnn(C)c1-c1cnc2c3ccc(C(C)(C)O)cc3n([C@@H](c3ccc(F)cc3)C3CCOCC3)c2c1 [Example 73] cannot be ordered by IC50: < 5 nM for the first, < 5 nM for the second.

COc1cccnc1C(C1CCOCC1)n1c2cc(C(C)(C)O)ccc2c2ncc(-c3c(C)nnn3C)cc21 (stereo not drawn) [Example 291] and Cc1nnn(C)c1-c1cnc2c3ccc(C(C)(C)O)cc3n([C@@H](c3ccc(F)cc3)C3CCOCC3)c2c1 [Example 60] cannot be ordered by IC50: < 5 nM for the first, < 5 nM for the second.

[2H]C([2H])([2H])c1nnn(C)c1-c1cnc2c3c(OC)cc(C(C)(C)O)cc3n(C(c3ccc(F)cc3)C3CCOCC3)c2c1 (stereo not drawn) [Example 275] and COCC(C1CCOCC1)n1c2cc(C(C)(C)O)ccc2c2ncc(-c3c(C)nnn3C)cc21 (single isomer, unassigned) [Example 397] cannot be ordered by IC50: < 5 nM for the first, < 25 nM for the second.

Cc1noc(C)c1-c1cnc2c3ccc(C(C)(C)O)c(F)c3n(C(CCC(F)(F)F)CCC(F)(F)F)c2c1 [Example 83] and Cc1nnn(C)c1-c1cnc2c3ccc(C(C)(C)O)c(F)c3n(C(CCC(F)(F)F)CCC(F)(F)F)c2c1 [Example 74] cannot be ordered by IC50: < 25 nM for the first, < 25 nM for the second.

COCC(C1CCOCC1)n1c2cc(C(C)(C)O)ccc2c2ncc(-c3c(C)nnn3C)cc21 (single isomer, unassigned) [Example 396] and Cc1nnn(C)c1-c1cnc2c3ccc(CN(C)C)cc3n([C@H](c3ccccc3)C3CCOCC3)c2c1 [Example 406, {[3-(Dimethyl-1H-1,2,3-triazol-5-yl)-5-[(S)-oxan-4-yl(phenyl)methyl]-5H-pyrido[3,2-b]indol-7-yl]methyl}dimethylamine] cannot be ordered by IC50: < 5 nM for the first, < 5 nM for the second.

Cc1noc(C)c1-c1cnc2c3ccc(C(C)(C)O)cc3n(C(c3ccccc3)c3ccccc3)c2c1 [Example 3] and Cc1nnn(C)c1-c1cnc2c3ccc(S(C)(=N)=O)cc3n([C@H](c3ccccc3)C3CCOCC3)c2c1 (single isomer, unassigned) [Example 372] cannot be ordered by IC50: < 5 nM for the first, < 5 nM for the second.

CCS(=O)(=O)Nc1ccc(S(C)(=O)=O)c2c1c1ncc(-c3c(C)nnn3C)cc1n2[C@H](c1ccccc1)C1CCOCC1 [Example 217] and [2H]C([2H])([2H])c1nnn(C)c1-c1cnc2c3c(NS(=O)(=O)CC)ccc(S(C)(=O)=O)c3n(C(c3ccccc3)C3CCOCC3)c2c1 (stereo not drawn) [Example 223] cannot be ordered by IC50: < 5 nM for the first, < 25 nM for the second.

Cc1nnn(C)c1-c1cnc2c3cc(C(=O)N4CC(F)(F)C4)ccc3n([C@H](c3ccccc3)C3CCOCC3)c2c1 [Example 428, 5-[8-(3,3-Difluoroazetidine-1-carbonyl)-5-[(S)-oxan-4-yl(phenyl)methyl]-5H-pyrido[3,2-b]indol-3-yl]-1,4-dimethyl-1H-1,2,3-triazole] and Cc1nnn(C)c1-c1cnc2c3ccc(S(C)(=N)=O)cc3n([C@H](c3ccccc3)C3CCOCC3)c2c1 (single isomer, unassigned) [Example 371] cannot be ordered by IC50: < 5 nM for the first, < 5 nM for the second.

Cc1nnn(C)c1-c1cnc2c3c(NS(=O)(=O)C4CC4)ccc(S(C)(=O)=O)c3n(C(c3ccccc3)C3CCOCC3)c2c1 (stereo not drawn) [Example 218] and Cc1nnn(C)c1-c1cnc2c3c(NS(=O)(=O)CC4CC4)ccc(S(C)(=O)=O)c3n([C@H](c3ccccc3)C3CCOCC3)c2c1 [Example 219] cannot be ordered by IC50: < 5 nM for the first, < 5 nM for the second.

In the case of Cc1nnn(C)c1-c1cnc2c3ccc(C(C)(C)O)cc3n(C(CCC(F)(F)F)CCC(F)(F)F)c2c1 [Example 56], the IC50 is reported as < 5 nM.
